Legend:
[1] = In vitro release of BSA from liposomes, dialysis method; format: physicochemical; conditions: free BSA, 4 h, 37° C., PBS pH 7.4
Procedure: in vitro release experiments of BSA from liposomes were performed at 37°±0.5° C. using the dialysis method under constant shaking (60 rpm). A 10 ml of phosphat buffered saline (PBS) pH 7.4 was used to test for the drug release for 48 h. Dialysis bags (Spectra/Por Biotech Cellulose Ester Dialysis Membrane MWCO: 300,000 Spectrum Ls Rancho Dominguez, Calif., USA) containing 500 μl liposomes were introduced into the system. All of the release media was withdrawn and replaced with the same volume of fresh medium at designated time points to maintain sink conditions. The sampled medium (1.0 ml out of 10 ml) was mixed with Bradford's reagent and the absorbance was measured as described in the method for determination of encapsulation efficiency. The concentration of the BSA released from the liposomes was calculated from the obtained linear calibration curve (r≧0.99) as previously described in the method for determination of encapsulation efficiency.

[2] = Nasal tissue penetration, Franz type permeation cell, CLSM; format: in vitro ADME, bovine; conditions: CF loaded, 1 hour incubation, 37° C.
Procedure: To investigate the ability of the TPGS:DDA:SPC liposomes of Example 1 to cross nasal mucosa and penetrate into bovine nasal tissue fresh bovine nasal tissues were collected from freshly slaughtered animals. The mucosal tissue was removed and preserved in Krebs Bicarbonate Ringer (KBR) buffer pH 7.4. Liposome penetration studies were performed immediately to maintain the viability of the cells tissue being used. A Franz type permeation cell was used in this study; the recipient compartment filled with KBR buffer and stirred constantly. The temperature of the Franz cell was maintained at 37° C. with jacketed water flow. A 1.5 cm^2 tissue section was inserted between the recipient and donor compartments and 0.5 ml of reconstituted liposomal dispersion or free carboxyfluorescein (CF) solutions containing an equivalent amount of CF were loaded into the donor compartment, and left for 1 hour incubation. The tissues were then washed with KBR buffer and frozen in optimal cutting temperature compound at −80° C. for cryosection. Samples of 10 μm thickness were obtained using a cryostat (MICROM HM 550). Propidium iodide (PI) solution was used to stain the cell nuclei and cryosectioned tissues were mounted in glycerol containing 1,4-phenylenediamine (0.1 g/l). Penetration was observed using confocal laser scanning microscopy (CLSM). […]

[3] = test system: human lung epithelial cell line L-132; assay: Cell uptake of CF-loaded liposomal formulations (fluorometry, flow cytometry, CLSM); format: cell-based; conditions: L-132 cells, 0.5-2 h at 37° C., 1:100 dilution
Procedure: Cells from the human lung epithelial cell line L-132 were cultured in MEM medium containing Earle's salts and L-glutamine and supplemented with 10% fetal calf serum (FCS), under standard conditions at 37° C. with 5% CO2 and 95% air. To validate the fluorimetric analysis, a standard curve was created during each assay. To perform the fluorometric assay cells were seeded at 25×10^4 cells/well onto 24-well plates (total volume was 1 ml/well). Twenty four hours later, the culture medium was removed. The formulations were added to the cells in 1:100 dilution in MEM medium (10 μl of liposomes suspension+990 μl medium) and incubated for 0.5-2 h at 37° C. Following incubation cells were washed two times with cold PBS to end the uptake experiment. Then the washed cells were lysed with 0.2% Triton X-100 in 0.2 N NaOH (1.0 ml/well) for 0.5-1 hour at room temperature. Aliquots from each well were transferred into 96-well plates. The cell fluorescence intensity was determined using a microplate fluorometer at an excitation wavelength of 485 nm and emission wavelength of 520 nm and Gain level set to 800 in the software (FIG. 4). […] The cells were kept on ice and analysized by flow cytometry using a FACscan flow cytometer for cell-associated CF fluorescence. The mean fluorescence intensity of cells was determined for each sample (FIG. 5). […]

bovine serum albumin [free BSA]
cumulative release of BSA [1]: 46.6±2.6%

carboxyfluorescein [free CF]
penetration into bovine nasal tissue (CLSM) [2]: completely washed out
amount of CF incorporated into cells [3]: free CF<CF-loaded SPC liposomes <CF-loaded TPGS:DDA:SPC liposomes

— patent publication US20150079156A1, “LIPOSOMAL DELIVERY SYSTEM” (THE QUEEN'S UNIVERSITY OF BELFAST, priority 2012, published 2015)
